Data from the SangsterLogP compilation.

assay: method code SF-AS, from DOI: 10.1016/0006-2952(66)90048-7; settings: not given

| SMILES | logP |
| --- | --- |
| O=C(NC(=O)c1c(O)cccc1O)c1c(O)cccc1O | 1.15 |
| O=C(NC(=O)c1ccc(O)cc1O)c1ccc(O)cc1O | 0.86 |
| CC(=O)Oc1cccc(OC(C)=O)c1C(N)=O | -0.62 |
| NC(=O)c1c(O)cccc1O | 0.6 |
| NC(=O)c1ccc(O)cc1O | -0.15 |

The next lines start with the values.

| logP | SMILES |
| --- | --- |
| 0.74 | O=C(Nc1ccccc1C(=O)O)c1ccccc1O |
| 0.32 | O=C(O)c1ccccc1NC(=O)c1c(O)cccc1O |
| 1.92 | O=C(NC(=O)c1ccccc1O)c1ccccc1O |
| 1.38 | O=C(NC(=O)c1ccccc1O)c1ccccc1 |

same assay, conditions: pH 7.0

| logD | SMILES |
| --- | --- |
| 0.89 | NC(=O)c1ccccc1O |
| 1.43 | O=C(Nc1ccccc1)c1c(O)cccc1O |
